Assay results from patent US10174029B2, “Pyrimidine-2,4-diamine derivatives for treatment of cancer” (THOMAS HELLEDAYS STIFTELSE FOR MEDICINSK FORSKNING, priority 2012, dated 2019).

target: MTH1 (Homo sapiens, UniProt P36639); experiment: MTH1 enzymatic assay and IC50 value determination (malachite green); assay type: biochemical; settings: MTH1 4.8 nM, dGTP 100 μM, 15 minutes at 22° C.; group: between 2 μM and 10 μM
How it was run: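 Malachite green detection of Pi after coupling dGTP hydrolysis to excess E. coli pyrophosphatase; 4.8 nM MTH1, 100 μM dGTP in Tris-acetate buffer with Mg2+ and DTT, 1% DMSO, 15 min at 22 °C. 12-point 1:3 compound series; absorbance at 630 nm; IC50 by four-parameter nonlinear regression.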

Row | IC50 [nM] | SMILES
1 | 2000 to 10000 | CC(C)(C)Nc1cc(-c2ccc(Cl)cc2)nc(N)n1 [Example 14, 4-N-tert-butyl-6-(4-chlorophenyl)pyrimidine-2,4-diamine]
2 | 2000 to 10000 | Cc1cccc(-c2cc(N[C@@H]3CN4CCC3CC4)nc(N)n2)c1C [Example 281, 4-N-[(3S)-1-azabicyclo[2.2.2]octan-3-yl]-6-(2,3-dimethylphenyl)pyrimidine-2,4-diamine]
3 | 2000 to 10000 | C[C@@H]1[C@H]2C[C@@H](C[C@H]1Nc1cc(-c3cccc(Cl)c3Cl)nc(N)n1)C2(C)C [Example 299, 6-(2,3-dichlorophenyl)-4-N-[(1R,2R,3R,5S)-2,6,6-trimethylbicyclo[3.1.1]heptan-3-yl]pyrimidine-2,4-diamine]

same assay, conditions: MTH1 4.8 nM, dGTP 100 μM, 15 minutes at 22° C.; group: less than 200 nM

Row | SMILES | IC50 [nM]
4 | CNc1cc(-c2ccc(C(F)(F)F)cc2)nc(N)n1 [Example 36, 4-N-methyl-6-[4-(trifluoromethyl)phenyl]pyrimidine-2,4-diamine] | < 200
5 | Cc1ccc(Cl)cc1-c1cc(NC2CCC2)nc(N)n1 [Example 220, 6-(5-chloro-2-methylphenyl)-4-N-cyclobutylpyrimidine-2,4-diamine] | < 200
6 | Cc1cccc(-c2cc(NCCc3ccccn3)nc(N)n2)c1C [Example 129, 6-(2,3-dimethylphenyl)-4-N-[2-(pyridin-2-yl)ethyl]pyrimidine-2,4-diamine] | < 200
7 | CNc1cc(-c2ccc(OC)c(C)c2)nc(N)n1 [Example 79, 6-(4-methoxy-3-methylphenyl)-4-N-methylpyrimidine-2,4-diamine] | < 200
8 | Cc1cccc(-c2cc(NCc3cnn(-c4ccc(F)cc4)c3)nc(N)n2)c1C [Example 348, 6-(2,3-Dimethylphenyl)-4-N-{[1-(4-fluorophenyl)-1H-pyrazol-4-yl]methyl}pyrimidine-2,4-diamine] | < 200
9 | C=CCNc1cc(-c2cccc(C)c2C)nc(N)n1 [Example 379, 6-(2,3-Dimethylphenyl)-4-N-(prop-2-en-1-yl)pyrimidine-2,4-diamine] | < 200
10 | CNc1cc(-c2ccc(C(C)(C)O)cc2)nc(N)n1 [Example 173, 2-{4-[2-amino-6-(methylamino)pyrimidin-4-yl]phenyl}propan-2-ol] | < 200
11 | CNc1cc(-c2cccc(NC(=O)CO)c2)nc(N)n1 [Example 322, N-{3-[2-Amino-6-(methylamino)pyrimidin-4-yl]phenyl}-2-hydroxyacetamide] | < 200
12 | CNc1cc(-c2cc(F)c(F)cc2F)nc(N)n1 [Example 72, 4-N-methyl-6-(2,4,5-trifluorophenyl)pyrimidine-2,4-diamine] | < 200
13 | Cc1cccc(-c2cc(NCCc3ccc(C#N)cc3)nc(N)n2)c1C [Example 333, 4-(2-{[2-Amino-6-(2,3-dimethylphenyl)pyrimidin-4-yl]amino}ethyl)benzonitrile] | < 200
14 | CCNc1cc(-c2cccc(Cl)c2Cl)nc(N)n1 [Example 66, 6-(2,3-dichlorophenyl)-4-N-ethylpyrimidine-2,4-diamine] | < 200
15 | Cc1cccc(-c2cc(NCCCNS(=O)(=O)c3ccccc3)nc(N)n2)c1C [Example 376, N-(3-{[2-Amino-6-(2,3-dimethylphenyl)pyrimidin-4-yl]amino}propyl)benzenesulfonamide] | < 200
16 | CNc1cc(-c2cc(Cl)ccc2OC)nc(N)n1 [Example 201, 6-(5-chloro-2-methoxyphenyl)-4-N-methylpyrimidine-2,4-diamine] | < 200
17 | Cc1cccc(-c2cc(NCCNc3ccc(C#N)cn3)nc(N)n2)c1C [Example 397, 6-[(2-{[2-Amino-6-(2,3-dimethylphenyl)pyrimidin-4-yl]amino}ethyl)amino]pyridine-3-carbonitrile] | < 200
18 | CNc1cc(-c2ccc(OC)c(Cl)c2Cl)nc(N)n1 [Example 98, 6-(2,3-dichloro-4-methoxyphenyl)-4-N-methylpyrimidine-2,4-diamine] | < 200
19 | Cc1cccc(-c2cc(NCC3CCCN3C(=O)OC(C)(C)C)nc(N)n2)c1C (stereo not shown) [Example 282, tert-butyl 2-({[2-amino-6-(2,3-dimethylphenyl)pyrimidin-4-yl]amino}methyl)-pyrrolidine-1-carboxylate] | < 200
20 | CNc1cc(-c2cccc(C(=O)N3CCOCC3)c2)nc(N)n1 [Example 44, 4-N-methyl-6-[3-(morpholine-4-carbonyl)phenyl]pyrimidine-2,4-diamine] | < 200
21 | Cc1cccc(-c2cc(NCC3(c4ccc(Cl)cc4)CC3)nc(N)n2)c1C [Example 295, 4-N-{[1-(4-chlorophenyl)cyclopropyl]methyl}-6-(2,3-dimethylphenyl)pyrimidine-2,4-diamine] | < 200

More lines, now with the values ahead:

Row | IC50 [nM] | SMILES
22 | < 200 | [2H]C([2H])([2H])Nc1cc(-c2cccc(C)c2Cl)nc(N)n1 [Example 422, 6-(2-chloro-3-methylphenyl)-4-N—(^2H3)methylpyrimidine-2,4-diamine]
23 | < 200 | CNc1cc(-c2cccc(C(F)(F)F)c2F)nc(N)n1 [Example 85, 6-[2-fluoro-3-(trifluoromethyl)phenyl]-4-N-methylpyrimidine-2,4-diamine]
24 | < 200 | COc1ccc(-c2cc(NC3CC3)nc(N)n2)cc1 [Example 18, 4-N-cyclopropyl-6-(4-methoxyphenyl)pyrimidine-2,4-diamine]
25 | < 200 | CNc1cc(-c2cccc3c2cnn3C)nc(N)n1 [Example 90, 4-N-methyl-6-(1-methyl-1H-indazol-4-yl)pyrimidine-2,4-diamine]
26 | < 200 | Cc1cccc(-c2cc(NC3CC3c3ccc(Cl)cc3)nc(N)n2)c1C (stereo not shown) [Example 267, 4-N-[2-(4-chlorophenyl)cyclopropyl]-6-(2,3-dimethylphenyl)pyrimidine-2,4-diamine]
27 | < 200 | CNc1cc(-c2cccc(NC(=O)c3ncccc3O)c2)nc(N)n1 [Example 308, N-{3-[2-amino-6-(methylamino)pyrimidin-4-yl]phenyl}-3-hydroxypyridine-2-carboxamide]
28 | < 200 | CNc1cc(-c2ccc(O)c(Cl)c2Cl)nc(N)n1 [Example 105, 4-[2-amino-6-(methylamino)pyrimidin-4-yl]-2,3-dichlorophenol]
29 | < 200 | Cc1cccc(-c2cc(NCCCNS(=O)(=O)c3cccc(S(C)(=O)=O)c3)nc(N)n2)c1C [Example 402, N-(3-{[2-Amino-6-(2,3-dimethylphenyl)pyrimidin-4-yl]amino}propyl)-3-methanesulfonylbenzene-1-sulfonamide]
30 | < 200 | CNc1cc(-c2cc(C)c(F)cc2Cl)nc(N)n1 [Example 215, 6-(2-chloro-4-fluoro-5-methylphenyl)-4-N-methylpyrimidine-2,4-diamine]
31 | < 200 | CNc1cc(-c2cccc(C(=O)Nc3ccc(C)cc3)c2)nc(N)n1 [Example 115, 3-[2-amino-6-(methylamino)pyrimidin-4-yl]-N-(4-methylphenyl)benzamide]
32 | < 200 | Nc1nc(NC2CCCC2)cc(-c2ccc(Cl)cc2)n1 [Example 55, 6-(4-chlorophenyl)-4-N-cyclopentylpyrimidine-2,4-diamine]
33 | < 200 | Nc1nc(NC2CCCCC2)cc(-c2cccc(Cl)c2Cl)n1 [Example 175, 4-N-cyclohexyl-6-(2,3-dichlorophenyl)pyrimidine-2,4-diamine]
34 | < 200 | Cc1cccc(-c2cc(NCCCc3ccccc3)nc(N)n2)c1C [Example 131, 6-(2,3-dimethylphenyl)-4-N-(3-phenylpropyl)pyrimidine-2,4-diamine]
35 | < 200 | Cc1cccc(-c2cc(NCCCNS(=O)(=O)c3cccc(C#N)c3)nc(N)n2)c1C [Example 374, N-(3-{[2-Amino-6-(2,3-dimethylphenyl)pyrimidin-4-yl]amino}propyl)-3-cyanobenzene-1-sulfonamide]
36 | < 200 | CNc1cc(-c2ccccc2C(F)(F)F)nc(N)n1 [Example 89, 4-N-methyl-6-[2-(trifluoromethyl)phenyl]pyrimidine-2,4-diamine]
37 | < 200 | Cc1cccc(-c2cc(NCCCNS(=O)(=O)c3c(C)noc3C)nc(N)n2)c1C [Example 359, N-(3-{[2-Amino-6-(2,3-dimethylphenyl)pyrimidin-4-yl]amino}propyl)-3,5-dimethyl-1,2-oxazole-4-sulfonamide]
38 | < 200 | CNc1cc(-c2cc(C)ccc2Cl)nc(N)n1 [Example 171, 6-(2-chloro-5-methylphenyl)-4-N-methylpyrimidine-2,4-diamine]
39 | < 200 | Cc1cccc(-c2cc(NCCOc3ccccc3)nc(N)n2)c1C [Example 132, 6-(2,3-dimethylphenyl)-4-N-(2-phenoxyethyl)pyrimidine-2,4-diamine]
40 | < 200 | CNc1cc(-c2cccc(C)c2Cl)nc(N)n1 [Example 226, 6-(2-chloro-3-methylphenyl)-4-N-methylpyrimidine-2,4-diamine]
41 | < 200 | CNc1cc(-c2ccccc2OC)nc(N)n1 [Example 32, 6-(2-methoxyphenyl)-4-N-methylpyrimidine-2,4-diamine]
42 | < 200 | Nc1nc(NCCc2ccc(S(N)(=O)=O)cc2)cc(-c2ccc(F)c(F)c2F)n1 [Example 434, 4-(2-{[2-amino-6-(2,3,4-trifluorophenyl)pyrimidin-4-yl]amino}ethyl)benzene-1-sulfonamide]
43 | < 200 | CNc1cc(-c2cncc3ccccc23)nc(N)n1 [Example 35, 6-(isoquinolin-4-yl)-4-N-methylpyrimidine-2,4-diamine]
44 | < 200 | Cc1cccc(-c2cc(NCCCNS(=O)(=O)c3ccccc3S(C)(=O)=O)nc(N)n2)c1C [Example 403, N-(3-{[2-Amino-6-(2,3-dimethylphenyl)pyrimidin-4-yl]amino}propyl)-2-methanesulfonylbenzene-1-sulfonamide]
45 | < 200 | CNc1cc(-c2ccnc(OC)c2Cl)nc(N)n1 [Example 120, 6-(3-chloro-2-methoxypyridin-4-yl)-4-N-methylpyrimidine-2,4-diamine]
46 | < 200 | CNc1cc(-c2ccncc2Cl)nc(N)n1 [Example 149, 6-(3-chloropyridin-4-yl)-4-N-methylpyrimidine-2,4-diamine]
